# Measured values from ChEMBL document CHEMBL3885881, “DrugMatrix”.
# Species: Rattus norvegicus
# Type: toxicity, organism-based, Sprague-Dawley
# Conditions: in vivo, po, 24 h, route oral GAVAGE, time 1 day, vehicle .5 % CMC; for ABSOLUTE EOSINOPHIL / ABSOLUTE LYMPHOCYTE / ABSOLUTE MONOCYTE / ABSOLUTE SEGMENTED NEUTROPHIL / BASOPHIL / EOSINOPHIL / ERYTHROCYTE COUNT / HEMATOCRIT / HEMOGLOBIN / LEUKOCYTE COUNT / LYMPHOCYTE / MEAN CORPUSCULAR HEMOGLOBIN / MEAN CORPUSCULAR HEMOGLOBIN CONCENTRATION / MEAN CORPUSCULAR VOLUME / MONOCYTE / NEUTROPHIL / NUCLEATED RED BLOOD CELLS / PLATELET COUNT: tissue Blood; for ALANINE AMINOTRANSFERASE / ALBUMIN / ALKALINE PHOSPHATASE / ASPARTATE AMINOTRANSFERASE / BLOOD UREA NITROGEN / CARBON DIOXIDE / CHLORIDE / CHOLESTEROL / CREATININE / GLUCOSE / LACTATE DEHYDROGENASE / LIPASE / PHOSPHORUS / POTASSIUM / SODIUM / TOTAL BILIRUBIN / TOTAL PROTEIN / URIC ACID: tissue Plasma
# [1] = 0 mg/kg, vehicle control, dose level Control
# Description: DrugMatrix - Regimen: Single
compound,measurement,setting,value
COc1ccccc1[N+](=O)[O-] [2-NITROANISOLE],ABSOLUTE EOSINOPHIL,[1],150 CELLS/uL
same,ABSOLUTE LYMPHOCYTE,[1],13279.83 CELLS/uL
same,ABSOLUTE MONOCYTE,[1],654.5 CELLS/uL
same,ABSOLUTE SEGMENTED NEUTROPHIL,[1],1565.67 CELLS/uL
same,BASOPHIL,[1],0%
same,EOSINOPHIL,[1],1%
same,ERYTHROCYTE COUNT,[1],5.36 x10E6/uL
same,HEMATOCRIT,[1],33.37%
same,HEMOGLOBIN,[1],12.52 G/DL
same,LEUKOCYTE COUNT,[1],15.65 x10E3/uL
same,LYMPHOCYTE,[1],84.83%
same,MEAN CORPUSCULAR HEMOGLOBIN,[1],23.4 pg
same,MEAN CORPUSCULAR HEMOGLOBIN CONCENTRATION,[1],37.52 G/DL
same,MEAN CORPUSCULAR VOLUME,[1],62.32 fL
same,MONOCYTE,[1],4.17%
same,NEUTROPHIL,[1],10%
same,NUCLEATED RED BLOOD CELLS,[1],0 /100WBC
same,PLATELET COUNT,[1],1020 x10E3/uL
same,ALANINE AMINOTRANSFERASE,[1],49 u/L
same,ALBUMIN,[1],4.47 G/DL
same,ALKALINE PHOSPHATASE,[1],361.17 u/L
same,ASPARTATE AMINOTRANSFERASE,[1],78.67 u/L
same,BLOOD UREA NITROGEN,[1],13.17 mg/dL
same,CARBON DIOXIDE,[1],29.67 mmol/L
same,CHLORIDE,[1],100.83 MEQ/L
same,CHOLESTEROL,[1],82.17 mg/dL
same,CREATININE,[1],0.15 mg/dL
same,GLUCOSE,[1],150.83 mg/dL
same,LACTATE DEHYDROGENASE,[1],239.17 u/L
same,LIPASE,[1],7.83 u/L
same,PHOSPHORUS,[1],13.82 mg/dL
same,POTASSIUM,[1],6.62 MEQ/L
same,SODIUM,[1],144.25 MEQ/L
same,TOTAL BILIRUBIN,[1],0.15 mg/dL
same,TOTAL PROTEIN,[1],6.2 G/DL
same,URIC ACID,[1],1.57 mg/dL
same,ABSOLUTE EOSINOPHIL,"740 mg/kg, dose level High",270.67 CELLS/uL
same,ABSOLUTE LYMPHOCYTE,"740 mg/kg, dose level High",12900.33 CELLS/uL
same,ABSOLUTE MONOCYTE,"740 mg/kg, dose level High",775.33 CELLS/uL
same,ABSOLUTE SEGMENTED NEUTROPHIL,"740 mg/kg, dose level High",1353.67 CELLS/uL
same,BASOPHIL,"740 mg/kg, dose level High",0%
same,EOSINOPHIL,"740 mg/kg, dose level High",2%
same,ERYTHROCYTE COUNT,"740 mg/kg, dose level High",5.82 x10E6/uL
same,HEMATOCRIT,"740 mg/kg, dose level High",35.73%
same,HEMOGLOBIN,"740 mg/kg, dose level High",13 G/DL
same,LEUKOCYTE COUNT,"740 mg/kg, dose level High",15.3 x10E3/uL
same,LYMPHOCYTE,"740 mg/kg, dose level High",84.33%
same,MEAN CORPUSCULAR HEMOGLOBIN,"740 mg/kg, dose level High",22.4 pg
same,MEAN CORPUSCULAR HEMOGLOBIN CONCENTRATION,"740 mg/kg, dose level High",36.43 G/DL
same,MEAN CORPUSCULAR VOLUME,"740 mg/kg, dose level High",61.43 fL
same,MONOCYTE,"740 mg/kg, dose level High",5%
same,NEUTROPHIL,"740 mg/kg, dose level High",8.67%
same,NUCLEATED RED BLOOD CELLS,"740 mg/kg, dose level High",0 /100WBC
same,PLATELET COUNT,"740 mg/kg, dose level High",1078.67 x10E3/uL
same,ALANINE AMINOTRANSFERASE,"740 mg/kg, dose level High",63 u/L
same,ALBUMIN,"740 mg/kg, dose level High",4.53 G/DL
same,ALKALINE PHOSPHATASE,"740 mg/kg, dose level High",432.67 u/L
same,ASPARTATE AMINOTRANSFERASE,"740 mg/kg, dose level High",85.67 u/L
same,BLOOD UREA NITROGEN,"740 mg/kg, dose level High",13 mg/dL
same,CARBON DIOXIDE,"740 mg/kg, dose level High",29 mmol/L
same,CHLORIDE,"740 mg/kg, dose level High",102.33 MEQ/L
same,CHOLESTEROL,"740 mg/kg, dose level High",77.67 mg/dL
same,CREATININE,"740 mg/kg, dose level High",0.2 mg/dL
same,GLUCOSE,"740 mg/kg, dose level High",124.33 mg/dL
same,LACTATE DEHYDROGENASE,"740 mg/kg, dose level High",283.67 u/L
same,LIPASE,"740 mg/kg, dose level High",9 u/L
same,PHOSPHORUS,"740 mg/kg, dose level High",12.9 mg/dL
same,POTASSIUM,"740 mg/kg, dose level High",7.13 MEQ/L
same,SODIUM,"740 mg/kg, dose level High",144.43 MEQ/L
same,TOTAL BILIRUBIN,"740 mg/kg, dose level High",0.27 mg/dL
same,TOTAL PROTEIN,"740 mg/kg, dose level High",6.03 G/DL
same,URIC ACID,"740 mg/kg, dose level High",1.33 mg/dL
